Laboratory results taken from ChEMBL document CHEMBL2034833, “Synthesis of chalcone-amidobenzothiazole conjugates as antimitotic and apoptotic inducing agents” (Bioorg Med Chem, 2012).
Activity calls are given as the source filed them. The rule behind the calls is not given here.

Biological target: Tubulin (Homo sapiens) (UniProt P68371+Q9H4B7+P0DPH7+P68366+Q13509+Q71U36+P04350+Q3ZCM7+P07437+P68363+Q9BQE3+Q6PEY2+Q13885+Q9BVA1+Q9BUF5)
Assay: Inhibition of tubulin polymerization in human A549 cells assessed as disrupted microtubule organization at 2 uM after 48 hrs by immunohistochemistry analysis
Assay type: cell-based

COc1ccc(/C=C/C(=O)c2cc(OC)c(OC)c(OC)c2)cc1OCC(=O)Nc1nc2ccccc2s1
inhibition: Active
